Each structure is given as a SMILES string. Values after ≈ are worked out from the molar mass of the structure shown.

Experiment [1] deals with benzodiazepine receptors. The experiment is described as follows: displacement of 3H-flunitrazepam from benzodiazepine receptors in vitro (rat forebrain membranes). To be noted: 50% displacement of specific 3H-flunitrazepam binding (1.0 nM, 0° C.), brain membranes of rats, pH 7.1.
Experiment [2] has as its system spasms induced by pentylenetrazole (pentazol). The experiment is described as follows: PTZ spasms antagonism (protection from pentylenetrazole-induced spasms and death). The note with it: Mus musculus, ip, 0.5 h; protects 50% of animals from spasms and death; test substance i.p. 15-30 minutes before pentazol 150 mg/kg s.c.; Litchfield and Wilcoxon; read-out: PTZ (ED50) mg/kg in vivo. Further details: species or system mice. How it is done:
The compounds according to the invention especially show anxiolytic and anticonvulsive effectiveness. […] Pentazol is administered subcutaneously in an amount of 150 mg/kg as hydrochloric acid solution (pH 2-3) 15-30 minutes after the intraperitoneal application of the test substance. This amount induces clonic and tonic spasms, which lead to death in untreated animals. The number of mice which show spasms and the number of them that died 30 minutes after pentazol are recorded (PTZ spasms antagonism).
The ED50 values indicated in the table were determined according to the method of Litchfield and Wilcoxon (J. Pharmacol. exp. Ther. 96 (1949) […]) as the amount of antagonistically acting substance which protects 50% of the animals from spasms and death.

The test system of experiment [3] is benzodiazepine receptors. The experiment is described as follows: displacement of 3H-flunitrazepam from benzodiazepine receptors in live brain, in vivo. The note with it: reduction of specific flunitrazepam binding in live brain to 50% of control; normally intraperitoneal; 3H-flunitrazepam i.v. after 15 minutes, forebrain removed after another 20 minutes.

Turning to `CCc1noc(-c2ncc3[nH]c4ccc(Oc5ccccc5)cc4c3c2C)n1` [6-Phenoxy, CH3, drawing 14, 6-phenoxy-4-methyl-3-(3-ethyl-1,2,4-oxadiazol-5-yl)-beta carboline], the “IC50 (ng/ml) in vitro” value at benzodiazepine receptors [1] was determined as 3.2 ng/mL (≈ 8.64 nM). The ED50 in experiment [2] worked out at 2.4 mg/kg. In addition, in the experiment with benzodiazepine receptors [3], the “ED50 (mg/kg) in vivo” value is given as 2.6 mg/kg.

As to `COCc1c(C(=O)OC(C)C)ncc2[nH]c3ccc(Oc4ccccc4[N+](=O)[O-])cc3c12` [6-(2-nitrophenoxy)-4-methoxymethyl-beta-carboline-3-carboxylic acid isopropyl ester], the “IC50 (ng/ml) in vitro” value on benzodiazepine receptors [1] amounted to 0.33 ng/mL (≈ 0.758 nM). In experiment [2], the ED50 was found to be 13 mg/kg. Besides, in the experiment with benzodiazepine receptors [3], the “ED50 (mg/kg) in vivo” value is on record as 1.8 mg/kg.

As to `CCOC(=O)c1ncc2[nH]c3cccc(Oc4ccc(Cl)cc4Cl)c3c2c1COC` [5-(2,4-dichlorophenoxy)-4-methoxymethyl-beta-carboline-3-carboxylic acid ethyl ester], the “IC50 (ng/ml) in vitro” value on benzodiazepine receptors [1] was 2.9 ng/mL (≈ 6.51 nM). The ED50 in experiment [2] is 4 mg/kg. Moreover, the “ED50 (mg/kg) in vivo” value in the experiment with benzodiazepine receptors [3] turned out to be 3.2 mg/kg.

On to `CCOC(=O)c1ncc2[nH]c3cccc(Oc4ccccc4)c3c2c1C` [5-Phenoxy, CH3, COOC2 H5, 5-phenoxy-4-methyl-beta-carboline-3-carboxylic acid ethyl ester, reference compound], for which the “IC50 (ng/ml) in vitro” value at benzodiazepine receptors [1] worked out at 2.0 ng/mL (≈ 5.77 nM). Also, in experiment [2], the ED50 is more than 30 mg/kg. The “ED50 (mg/kg) in vivo” value in the experiment with benzodiazepine receptors [3] was 2.8 mg/kg.

Consider `CCc1noc(-c2ncc3[nH]c4ccc(Oc5ccc(C(C)=O)cc5)cc4c3c2COC)n1` [6-(4-acetylphenoxy), CH2 OCH3, drawing 11, 6(4-acetylphenoxy)-4-methoxymethyl-3-(3-ethyl-1,2,4-oxadizaol-5-yl)-beta-carboline], for which the “IC50 (ng/ml) in vitro” value at benzodiazepine receptors [1] is 0.45 ng/mL (≈ 1.02 nM). The ED50 in experiment [2] was 0.3 mg/kg. Moreover, in the experiment with benzodiazepine receptors [3], the “ED50 (mg/kg) in vivo” value is 7.7 mg/kg.

`CCc1noc(-c2ncc3[nH]c4cccc(Oc5ccccc5)c4c3c2COC)n1` [5-Phenoxy, CH2 OCH3, drawing 12, 5-phenoxy-4-methoxymethyl-3-(3-ethyl-1,2,4-oxadiazol-5-yl)-beta carboline]: at benzodiazepine receptors [1], the “IC50 (ng/ml) in vitro” value stood at 0.6 ng/mL (≈ 1.5 nM). For the same molecule, the ED50 in experiment [2] amounted to 0.1 mg/kg. For the same molecule, the “ED50 (mg/kg) in vivo” value with benzodiazepine receptors [3] is recorded as 0.3 mg/kg.

As to `CCc1noc(-c2ncc3[nH]c4cccc(Oc5ccccc5Cl)c4c3c2COC)n1` [5-(2-Cl-Phenoxy), CH2 OCH3, drawing 10], the “IC50 (ng/ml) in vitro” value on benzodiazepine receptors [1] came out at 3.1 ng/mL (≈ 7.13 nM). Further, the ED50 in experiment [2] was 0.8 mg/kg. Also, the “ED50 (mg/kg) in vivo” value in the experiment on benzodiazepine receptors [3] came to 11 mg/kg.

Take `COCc1c(C(=O)OC(C)C)ncc2[nH]c3ccc(Oc4cccc(Cl)c4C#N)cc3c12` [6-(2-cyano-3-chlorophenoxy)-4-methoxymethyl-beta-carboline-3-carboxylic acid isopropyl ester]: the “IC50 (ng/ml) in vitro” value on benzodiazepine receptors [1] came out at 0.67 ng/mL (≈ 1.49 nM). In addition, in experiment [2], the ED50 was 1 mg/kg. In addition, in the experiment with benzodiazepine receptors [3], the “ED50 (mg/kg) in vivo” value was found to be 3.0 mg/kg.

Turning to `CCc1noc(-c2ncc3[nH]c4cccc(Oc5ccccc5)c4c3c2C)n1` [5-Phenoxy, CH3, drawing 13, 5-phenoxy-4-methyl-3-(3-ethyl-1,2,4-oxadizaol-5-yl)-beta-carboline], the “IC50 (ng/ml) in vitro” value at benzodiazepine receptors [1] amounted to 4.3 ng/mL (≈ 11.6 nM). For the same molecule, the ED50 in experiment [2] was determined as 2 mg/kg. Further, the “ED50 (mg/kg) in vivo” value with benzodiazepine receptors [3] was found to be 3.9 mg/kg.

For the molecule `CCOC(=O)c1ncc2[nH]c3cccc(Oc4ccccc4)c3c2c1COC` [5-Phenoxy, CH2 OCH3, COOEt, 5-Phenoxy-4-methoxymethyl-beta-carboline-3-carboxylic acid ethyl ester], on benzodiazepine receptors [1], the “IC50 (ng/ml) in vitro” value came to 0.3 ng/mL (≈ 0.797 nM). The ED50 in experiment [2] worked out at 18 mg/kg. Further, the “ED50 (mg/kg) in vivo” value in the experiment on benzodiazepine receptors [3] was 0.4 mg/kg.

Turning to `COCc1c(C(=O)OC(C)C)ncc2[nH]c3cccc(Oc4ccccc4Cl)c3c12` [5-(2-Cl-Phenoxy), CH2 OCH3, COOCH(CH3)2], the “IC50 (ng/ml) in vitro” value at benzodiazepine receptors [1] amounted to 2.6 ng/mL (≈ 6.12 nM). Further, in experiment [2], the ED50 was found to be 4 mg/kg. Also, in the experiment on benzodiazepine receptors [3], the “ED50 (mg/kg) in vivo” value came out at 19 mg/kg.

Take `COCc1c(C(=O)OC(C)C)ncc2[nH]c3ccc(Oc4ccccc4C#N)cc3c12` [6-(2-cyanophenoxy)-4-methoxymethyl-beta-carboline-3-carboxylic acid isopropyl ester]: the “IC50 (ng/ml) in vitro” value on benzodiazepine receptors [1] stood at 0.29 ng/mL (≈ 0.698 nM). Moreover, the ED50 in experiment [2] turned out to be 4 mg/kg. The “ED50 (mg/kg) in vivo” value in the experiment on benzodiazepine receptors [3] came out at 3.8 mg/kg.

Source of the values: patent publication US4945090A, “Phenoxy-substituted beta-carboline derivatives, their production and their use as drugs” (Schering Aktiengesellschaft, priority 1985, dated 1990).
